In patent publication US10617735B2, “Methods and compositions for preserving retinal ganglion cells” (Massachusetts Eye and Ear Infirmary, priority 2010, dated 2020):
Where a SMILES comes first, the peptide text is derived from it. The star is where a group is joined. Cbz = O=C(OCc1ccccc1)*; CH2F = FC*

Tests used:
Assay type in all cases: in vivo, mouse
[1] = tested on: retinal ganglion cells (RGCs); assay: NMDA retinal excitotoxicity model: TUNEL staining; conditions: NMDA injected intravitreously in combination with the compounds
Source text: (§1) Two mouse models of RGC death were utilized: optic nerve (ON) injury and N-methyl-D-aspartate (NMDA) retinal excitotoxicity. ON injury leads to RGC death as a result of primary damage to the axons, with its ensuing disruption of retrograde axonal transport (Libby et al., (2005) PLOS GENET 1:17-26) and is used as an RGC death model. In the ON injury model, mice were anesthetized and subjected to severe crush injury at 1-2 mm distance from the eyeball for 15 seconds using cross-action forceps taking special care not to interfere with the blood supply (Levkovitch-Verbin, (2004) EYE 18:1066-1074). Injured mice were randomly divided into 4 groups for treatment: vehicle group (0.5% DMSO and 0.8% cyclodextrin in PBS, n=6), ZVAD group (300 n=6), Nec-1 group (4 mM, n=6), and ZVAD plus Nec-1 group (n=6). Soon after injury, each group received an intravitreal injection (2 μl) with the respective compounds. In the NMDA retinal excitotoxicity model, NMDA (2 μl of a 0.1M stock; Sigma-Aldrich) was injected intravitreously in combination with ZVAD, Nec-1, or ZVAD plus Nec-1 and mice were separated into the aforementioned 4 groups. […]

[2] = tested on: retinal ganglion cells (RGCs); assay: Propidium iodide (PI) staining of necrotic cells in GCL after ON injury; conditions: one day after ON injury, wild-type mice
Source text: To investigate further the underlying mechanism of why Z-VAD fails to prevent RGC death after ON injury, propidium iodide (PI) was used to detect necrotic cells in GCL (Unal Cevik et al., (2010)). At one day after ON injury, Z-VAD administration increased the number of PI positive cells compared with vehicle (FIGS. 4A and 4B).

[3] = tested on: retinal ganglion cells (RGCs); assay: IPL thickness and GCL with IPL thickness after ON injury (immunohistochemistry, SD-OCT); conditions: RIP3−/− mice; one week after ON injury
Protocol: An anti-TNF-α neutralizing antibody (0.1 mg/ml) or a control antibody was injected into the vitreous of mice that underwent ON injury. One week following injection, the number of RGCs were measured. In addition, inner plexiform layer (IPL) thickness (a location of RGC axons) was also assessed. Specifically, eyes were enucleated and RGC loss was quantified from histological sections of mouse retina. Only transverse sections involving the optic disc were used for analysis and the fields corresponding to approximately 400 μm of both sides of retina extending from the ON head (2 points/section×3 sections per eye, n=6) were examined with an optical microscope (×40 objectives). IPL thickness was measured with OpenLab software (Open Lab, Florence, Italy) (2 points/section×3 sections per eye, n=6). The ratio of IPL thickness was calculated as a percentage of IPL thickness in the normal mouse eyes (n=6).
Inner plexiform layer (IPL) thickness and ganglion cell layer (GCL) with IPL thickness (location of RGC cell bodies and axons) were measured using immunohistochemistry and a Spectral Domain Optical Coherence Tomography (SD-OCT) system (Bioptigen Inc., Durham, N.C.). […] The thickness of GCL+IPL was assessed at 500 μm, 400 μm, 300 μm distance from the ON head (nasally and temporally) as well as at 200 μm, 400 μm above and below the ON head.

TNF-α = TNF-α level in the retina after ON injury (quantitative real-time RT-PCR); conditions: one day after ON injury; intravitreal Z-VAD (300 uM) and/or Nec-1 (400 uM)
Protocol: Total RNA extraction, cDNA synthesis and PCR amplification have been performed as previously reported (Kayama et al., (2010) OPHTHALMIC RES 43:79-91). A real-time PCR assay was performed with Prism 7700 Sequence Detection System (Applied Biosystems, Foster City, Calif.). The primers are shown below in Table 1.
For relative comparison of each gene, the Ct value of real-time PCR data was analyzed with the ΔΔCt method and normalized to an endogenous control ([…].
To investigate whether TNF-α is involved in RGC cell death in mice subjected to optic nerve (ON) injury (induced by physical injury to the optic nerve), TNF-α level in the retina was measured using quantitative real-time RT-PCR. As depicted in FIG. 2A, at one day after ON injury, TNF-α mRNA levels increased almost 10- to 13-fold relative to non-injured mice.

[4] = tested on: retinal ganglion cells (RGCs); assay: NMDA retinal excitotoxicity model: Brn3b positive cells; conditions: NMDA injected intravitreously in combination with the compounds
Source text: as §1

[5] = tested on: Apoptosis inducing factor (AIF); assay: AIF immunostaining with TUNEL after ON injury (nuclear translocation); conditions: one day after ON injury
Protocol: Apoptosis inducing factor (AIF) is a mitochondrial flavoprotein which is involved in initiating caspase-independent apoptosis. After loss of mitochondrial membrane potential, AIF translocates into the nucleus, induces DNA fragmentation and peripheral chromatin condensation (Susin et al., (1999), Susin et al., (2000), Candé et al., (2004)). To analyze whether mitochondrial release of AIF is associated with RGC death after ON injury, immunostaining for AIF was performed together with TUNEL assay. One day after ON injury, there was a prominent nuclear translocation of AIF, which was not affected by pan-caspase inhibition (FIGS. 7A and 7B).

**Q.** `COC(=O)CC(NC(=O)C(C)NC(=O)C(NC(=O)OCc1ccccc1)C(C)C)C(=O)CF` (stereo not drawn) [Z-VAD, Benzyloxycarbonyl-Val-Ala-Asp(OMe)-fluoromethylketone] (Cbz-Val-Ala-Asp(OMe)-CH2F; configuration not given here) was tested. Which “number of TUNEL positive cells” value [1] did it give?
**A.** Its value is “decreased the number of TUNEL positive cells”.

**Q.** And the “number of PI positive cells” value [2]?
**A.** Its value is “increased”.

**Q.** What about the IPL thickness [3] of the same molecule?
**A.** The IPL thickness was “preservation of IPL thickness”.

**Q.** And the “increase of TNF-α levels after ON injury” value (TNF-α)?
**A.** The value was “did not affect”.

**Q.** What about the “reduction of Brn3b positive cells” value [4] of the same molecule?
**A.** Its value is “prevented the reduction of Brn3b positive cells”.

**Q.** What about the “nuclear translocation of AIF” value [5] of the same molecule?
**A.** Its value is “not affected”.
